# Test results as given in patent US20260226417A1, “METHOD FOR INHIBITING AGING OF STEM CELLS” (ENCELL CO., LTD, priority 2023, published 2026).
# Key:
# [1] = test system: senescence markers P16 and P21; assay: qRT-PCR of senescence markers p16 and p21 at P10 after treatment at each passage; assay type: cell-based, human; conditions: 160 μM for 24 hours at each passage
# Protocol: Specifically, qRT-PCR performed in this example is as follows: after treating the replicative senescence model (P18) with nervonic acid for 3 days, total RNA was extracted using Trizol (Invitrogen, MA, USA) according to the method provided by the vendor. After quantifying the extracted total RNA, random hexamer and dNTP were added, and PCR was performed at 65° C. for 5 minutes. 5× SSIV buffer, 100 mM DTT, RNAse OUT, and Superscript IV RT were added and reverse transcription was performed to synthesize cDNA, and then qRT-PCR was performed to measure gene expression, and the expression levels were compared through 2^−ΔΔCt analysis.
# Example 8. Confirmation Of anti-senescence efficacy by treating various human tissue-derived mesenchymal stem cells with nervonic acid Human-derived mesenchymal stem cells were treated with nervonic acid (160 μM) at each passage during cell culture from control cells (P5) to P10 to determine whether continuous treatment with nervonic acid during cell culture at early passage numbers was able to delay cellular senescence.
# Specifically, from the day after human-derived mesenchymal stem cells were subcultured, treatment with 160 μM nervonic acid or an equivalent amount of DMSO (control) for 24 hours was performed, followed by replacement with the existing culture medium the next day. The above process was repeated to perform subculture up to P10 (passage 10). […]
# [2] = test system: human bone marrow-derived mesenchymal stem cells (BM-MSCs/passage 15); assay: β-galactosidase staining, senescent BM-MSCs; assay type: cell-based; conditions: BM-MSCs passage 15, 3 days
# Protocol: Human bone marrow-derived mesenchymal stem cells (BM-MSCs) were purchased from Cambrex (Lonza, #PT-2501).
# (§1) Each of the obtained mesenchymal stem cells was subcultured in aMEM (a-modified Minimum Essential Media) containing 10% fetal bovine serum (FBS) and 0.5% gentamicin (10 mg/ml).
# (§2) The replicative senescence models of human adipose-derived mesenchymal stem cells (AD-MSCs/passage 18), human bone marrow-derived mesenchymal stem cells (BM-MSCs/passage 15), human umbilical cord blood-derived mesenchymal stem cells (UCB-MSCs/passage 16), and human placenta-derived mesenchymal stem cells (PL-MSCs/passage 18) established as described above were treated with nervonic acid for 3 days, and β-galactosidase staining was performed to observe the extent of senescence.
# [3] = test system: human placenta-derived mesenchymal stem cells (PL-MSCs/passage 18); assay: β-galactosidase staining, senescent PL-MSCs; assay type: cell-based; conditions: PL-MSCs passage 18, 3 days
# Excerpt: Human placenta-derived mesenchymal stem cells (pl-mscs) Were Isolated From Placentas Separated according to the previously reported method of Choi et al. (PLOS ONE, (2017) 12 (2): e0172642), umbilical cord blood-derived mesenchymal stem cells (UCB-MSCs) were isolated from the umbilical cord blood separated according to the method of Kim et al. (FEBS Letters, (2010) 584:3601-3608), and adipose tissue-derived mesenchymal stem cells (AD-MSCs) were isolated from adipose tissue separated according to the previously reported method of Palumbo et al. (Int. J. Mol. Sci. (2018) 19:1987).
# as §1, §2
# [4] = test system: replicative senescence model of human umbilical cord-derived mesenchymal stem cells (P18); assay: Cell size measurement, replicative senescence model (P18); assay type: cell-based; conditions: 160 μM, 3 days
# Protocol: Example 4. Validation of gut microbiota-derived metabolite candidate for senescence control Control cells (P5) and replicative senescence-induced human umbilical cord-derived mesenchymal stem cells (P18) were treated with nervonic acid (160 μM) to analyze the effects of the gut microbiota-derived metabolite having the ability to control senescence of stem cells on the proliferation of stem cells and cell size.
# In addition, since cells have the characteristic of undergoing hypertrophy during the progression of cellular senescence, cell sizes were compared.
# [5] = test system: MyHC (myosin heavy chain), a marker of muscle regeneration, in muscle tissue; assay: MyHC immunohistochemical staining in muscle tissue of muscle disease mouse model after injection of treated P18 cells; assay type: in vivo; conditions: P18 cells treated with 160 μM for 72 hours, injected via tail vein, mdx mouse, one week after injection
# Protocol: Specifically, the muscle disease mouse model used was C57BL/10ScSn-Dmdmdx/J (mdx mouse) , and C57BL/10J with the same genetic background was used as a control group. All experiments were conducted using mice aged 4 to 5 months. The cells to be injected were human umbilical cord-derived young mesenchymal stem cells (control group) (P5) and replicative senescence model (P18). More specifically, the replicative senescence model (P18) was treated with 160 μM nervonic acid or an equivalent amount of DMSO for 72 hours during culture at P18 and then dissociated as single cells with 0.25% Trypsin/EDTA (Gibco, MT, USA), and 5×10^4 cells per mouse were injected via the tail vein. One week after injection, both tibial muscles of the mouse model were harvested and fixed in 4% paraformaldehyde or frozen.
# Example 10. […]
# In order to assess the extent of muscle regeneration in the muscle tissue of a muscle disease mouse model after injecting mesenchymal stem cells for each condition, the extent of muscle regeneration in the tissue was determined through immunohistochemical staining for MyHC (myosin heavy chain), a marker of muscle regeneration. […]
# [6] = test system: replicative senescence model of human umbilical cord-derived mesenchymal stem cells (P18); assay: Screening of gut microbiota-derived metabolite library for senescence control (primary HTS and secondary cell viability screening); assay type: cell-based
# Excerpt: Example 2. Screening of gut microbiota-derived metabolites for senescence control of human umbilical cord-derived mesenchymal stem cells In order to determine differences in metabolite reactivity depending on the senescence status of human umbilical cord-derived mesenchymal stem cells, a library of 485 gut microbiota-derived metabolites was used to select candidates that inhibit the proliferation or cause death of replicative senescent stem cells.
# Thereby, 13 candidates showing low viability only in the replicative senescence model (P18) without affecting the viability of the control cells (P5) were selected by primary screening, and the experimental group was treated with the metabolite at 25 μM, 50 μM, 100 μM, 200 μM, 300 μM, 400 μM, and 500 μM to determine the optimal concentration of the metabolite by secondary screening, analyzing the senescence control effect at a total of 7 metabolite concentrations.
compound,measurement,setting,value
CCCCCCCC/C=C\CCCCCCCCCCCCCC(=O)O [nervonic acid],"p16 mRNA expression, fold compared to control group (DMSO)",[1],0.84±0.05 fold
same,"p21 mRNA expression, fold compared to control group (DMSO)",[1],0.84±0.03 fold
same,progression of senescence (β-galactosidase staining) compared to control group (DMSO),[2],progression of senescence was significantly inhibited
same,progression of senescence (β-galactosidase staining) compared to control group (DMSO),[3],progression of senescence was significantly inhibited
same,"cell size, fold decrease compared to before treatment",[4],0.47±0.03 fold
same,MyHC expression level (immunohistochemical staining) compared to injection group treated with DMSO,[5],slightly increased
same,senescence control effect in secondary screening,"[6]; 13 candidates tested at 25-500 μM (7 concentrations), P18 vs P5",greatest effect on controlling senescence
same,concentration exhibiting senescence control efficacy in secondary screening,[6]; secondary screening,about 200 μM
